Biological target: T1, full-length human PKCι (Homo sapiens, UniProt P41743)
T1 construct: Recombinant, full-length human PKCι expressed in Sf21 insect cells is also commercially available; purchased; host or cells: Sf21 insect cells
T1 sequence (P41743 1-596): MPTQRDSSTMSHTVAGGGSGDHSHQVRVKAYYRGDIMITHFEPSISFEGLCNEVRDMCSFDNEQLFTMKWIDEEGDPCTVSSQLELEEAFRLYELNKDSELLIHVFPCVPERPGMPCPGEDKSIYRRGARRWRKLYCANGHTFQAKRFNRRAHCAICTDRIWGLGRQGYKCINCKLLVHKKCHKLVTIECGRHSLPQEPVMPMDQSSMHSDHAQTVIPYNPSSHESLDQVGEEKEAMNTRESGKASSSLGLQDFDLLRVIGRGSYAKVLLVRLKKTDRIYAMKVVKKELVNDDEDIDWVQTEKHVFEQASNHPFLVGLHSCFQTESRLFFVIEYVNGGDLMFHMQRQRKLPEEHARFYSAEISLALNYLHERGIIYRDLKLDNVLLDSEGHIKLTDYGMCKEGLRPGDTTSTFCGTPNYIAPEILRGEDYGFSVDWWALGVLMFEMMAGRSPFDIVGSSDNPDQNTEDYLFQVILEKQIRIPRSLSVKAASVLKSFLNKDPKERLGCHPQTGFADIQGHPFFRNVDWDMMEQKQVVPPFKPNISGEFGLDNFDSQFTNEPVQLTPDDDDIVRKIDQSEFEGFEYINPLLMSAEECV
Test: PKCι IC50 IMAP assay, full-length PKCι at 150 μM ATP
Type: biochemical
Conditions: read-out: IC50 in IMAP assay against full length PKCi at 150 μM ATP
Procedure, shortened: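 IMAP fluorescence polarisation (ex 485/em 530 nm) read-out; % inhibition set from no-compound (0%) and no-enzyme (100%) controls, IC50 from dose-response curve fit. Sf21-expressed full-length enzyme ~15 pM, 100 nM FAM peptide, ATP 150 μM (5× KM^APP), 60 min at RT.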

Row | IC50 [nM] | Compound
1 | < 100 | COc1cncc2nc(-c3ccnc(Nc4ccc(N(C)C)cc4)c3)nc(N[C@@H]3CCNC3)c12 [Example 226, N-{4-[5-Methoxy-4-((R)-pyrrolidin-3-ylamino)-pyrido[3,4-d]pyrimidin-2-yl]-pyridin-2-yl}-N′,N′-dimethyl-benzene-1,4-diamine]
2 | < 100 | COc1cncc2nc(-c3ccnc(Nc4cccc(N5CCOCC5)c4)c3)nc(N[C@@H]3CCNC3)c12 [Example 227, {5-Methoxy-2-[2-(3-morpholin-4-yl-phenylamino)-pyridin-4-yl]-pyrido[3,4-d]pyrimidin-4-yl}-(R)-pyrrolidin-3-yl-amine]
3 | < 100 | COc1cncc2nc(-c3ccnc(Nc4ccccc4F)c3)nc(N[C@@H]3CCNC3)c12 [Example 228, {2-[2-(2-Fluoro-phenylamino)-pyridin-4-yl]-5-methoxy-pyrido[3,4-d]pyrimidin-4-yl}-(R)-pyrrolidin-3-yl-amine]
4 | < 100 | COc1cncc2nc(-c3ccnc(Nc4ccc(N5CCOCC5)cc4)c3)nc(N[C@@H]3CCNC3)c12 [Example 229, {5-Methoxy-2-[2-(4-morpholin-4-yl-phenylamino)-pyridin-4-yl]-pyrido[3,4-d]pyrimidin-4-yl}-(R)-pyrrolidin-3-yl-amine]
5 | < 100 | COc1cncc2nc(-c3ccnc(Nc4ccc(F)cc4)c3)nc(N[C@@H]3CCNC3)c12 [Example 230, {2-[2-(4-Fluoro-phenyl-amino)-pyridin-4-yl]-5-methoxy-pyrido[3,4-d]pyrimidin-4-yl}-(R)-pyrrolidin-3-yl-amine]
6 | 10000 to 40000 | COc1cncc2nc(-c3ccnc(Nc4ccccc4)c3)nc(N3CCNC(C(F)(F)F)C3)c12 (centres unmarked) [Example 231, {4-[5-Methoxy-4-(3-trifluoromethyl-piperazin-1-yl)-pyrido[3,4-d]pyrimidin-2-yl]-pyridin-2-yl}-phenyl-amine]
7 | 100 to 1000 | COc1cncc2nc(-c3ccnc(Nc4ccccc4)c3)nc(N3CCN[C@@H](CC#N)C3)c12 [Example 232, {(S)-4-[5-Methoxy-2-(2-phenylamino-pyridin-4-yl)-pyrido[3,4-d]pyrimidin-4-yl]-piperazin-2-yl}-acetonitrile]
8 | 100 to 1000 | COc1cncc2nc(-c3ccnc(Nc4ccccc4)c3)nc(N3CCN[C@@H](CF)C3)c12 [Example 233, {4-[4-((R)-3-Fluoromethyl-piperazin-1-yl)-5-methoxy-pyrido[3,4-d]pyrimidin-2-yl]-pyridin-2-yl}-phenyl-amine]
9 | 100 to 1000 | COc1cncc2nc(-c3ccnc(NC(=O)C4CC4)c3)nc(N3CCC(O)CC3)c12 [Example 234, Cyclo-propane-carboxylic acid {4-[4-(4-hydroxy-piperidin-1-yl)-5-methoxy-pyrido[3,4-d]pyrimidin-2-yl]-pyridin-2-yl}-amide]
10 | 100 to 1000 | COc1cncc2nc(-c3ccnc(Nc4ccccc4)c3)nc(N3CCN[C@H](CF)C3)c12 [Example 235, {4-[4-((S)-3-Fluoro-methyl-piperazin-1-yl)-5-methoxy-pyrido[3,4-d]pyrimidin-2-yl]-pyridin-2-yl}-phenyl-amine]
11 | 100 to 1000 | COc1cncc2nc(-c3ccnc(Nc4ccccc4)c3)nc(N3CCN[C@@H](C4CC4)C3)c12 [Example 236]
12 | 1000 to 10000 | COc1cncc2nc(-c3ccnc(Nc4c(F)ccc(F)c4F)c3)nc(N3CCN[C@@H](CF)C3)c12 [Example 237, {4-[4-((R)-3-Fluoromethyl-piperazin-1-yl)-5-methoxy-pyrido[3,4-d]pyrimidin-2-yl]-pyridin-2-yl}-(2,3,6-trifluoro-phenyl)-amine]
13 | < 100 | COc1cncc2nc(-c3ccnc(Nc4ccccc4)c3)nc(N[C@@H]3CCNC3)c12 [Example 238, [5-Methoxy-2-(2-phenylamino-pyridin-4-yl)-pyrido[3,4-d]pyrimidin-4-yl]-(R)-pyrrolidin-3-yl-amine]
14 | < 100 | COc1cncc2nc(-c3ccnc(Nc4cnccn4)c3)nc(N[C@@H]3CCNC3)c12 [Example 239, {5-Methoxy-2-[2-(pyrazin-2-ylamino)-pyridin-4-yl]-pyrido[3,4-d]pyrimidin-4-yl}-(R)-pyrrolidin-3-yl-amine]
15 | < 100 | COc1cncc2nc(-c3ccnc(NC(=O)c4cccs4)c3)nc(N[C@@H]3CCNC3)c12 [Example 240, Thiophene-2-carboxylic acid {4-[5-methoxy-4-((R)-pyrrolidin-3-ylamino)-pyrido[3,4-d]pyrimidin-2-yl]-pyridin-2-yl}-amide]
16 | < 100 | COc1cncc2nc(-c3ccnc(NC4CCCC4)c3)nc(N3CCNCC3)c12 [Example 241, Cyclopentyl-[4-(5-methoxy-4-piperazin-1-yl-pyrido[3,4-d]pyrimidin-2-yl)-pyridin-2-yl]-amine]

Row | IC50 [nM] | Compound
17 | < 100 | COc1cncc2nc(-c3ccnc(NC4CCCCC4)c3)nc(N3CCNCC3)c12 [Example 242, Cyclohexyl-[4-(5-methoxy-4-piperazin-1-yl-pyrido[3,4-d]pyrimidin-2-yl)-pyridin-2-yl]-amine]
18 | 1000 to 10000 | c1cnc(Nc2cc(-c3nc(N[C@@H]4CCNC4)c4ccncc4n3)ccn2)cn1 [Example 243, {2-[2-(Pyrazin-2-ylamino)-pyridin-4-yl]-pyrido[3,4-d]pyrimidin-4-yl}-(R)-pyrrolidin-3-yl-amine]
19 | 1000 to 10000 | COc1cncc2nc(-c3ccnc(Nc4ccccc4)c3)nc(N3CCC(CO)CC3)c12 [Example 244, {1-[5-Methoxy-2-(2-phenylamino-pyridin-4-yl)-pyrido[3,4-d]pyrimidin-4-yl]-piperidin-4-yl}-methanol]
20 | 1000 to 10000 | COc1cncc2nc(-c3ccnc(Nc4ccccc4)c3)nc(N[C@@H]3CCN(CC(N)=O)C3)c12 [Example 245, 2-{3-[5-Methoxy-2-(2-phenylamino-pyridin-4-yl)-pyrido[3,4-d]pyrimidin-4-ylamino]-R-pyrrolidin-1-yl}-acetamide]
21 | 100 to 1000 | Clc1cncc2nc(-c3ccnc(Nc4ccccc4)c3)nc(N3CCNCC3)c12 [Example 246, [4-(5-Chloro-4-piperazin-1-yl-pyrido[3,4-d]pyrimidin-2-yl)-pyridin-2-yl]-phenyl-amine]
22 | 100 to 1000 | Fc1ccccc1Nc1cc(-c2nc(N3CCNCC3)c3c(Cl)cncc3n2)ccn1 [Example 247, [4-(5-Chloro-4-piperazin-1-yl-pyrido[3,4-d]pyrimidin-2-yl)-pyridin-2-yl]-(2-fluoro-phenyl)-amine]
23 | < 100 | Fc1ccccc1Nc1cc(-c2nc(N3CCNCC3)c3c(Nc4ccccc4F)cncc3n2)ccn1 [Example 248, (2-Fluoro-phenyl)-{2-[2-(2-fluoro-phenylamino)-pyridin-4-yl]-4-piperazin-1-yl-pyrido[3,4-d]pyrimidin-5-yl}-amine]
24 | 100 to 1000 | C[C@H]1CN(c2nc(-c3ccnc(Nc4ccccc4)c3)nc3cncc(Cl)c23)CCN1 [Example 250, {4-[5-Chloro-4-((S)-3-methyl-piperazin-1-yl)-pyrido[3,4-d]pyrimidin-2-yl]-pyridin-2-yl}-phenyl-amine]
25 | 100 to 1000 | CC(=O)Nc1cc(-c2nc(N3CCNCC3)c3c(Cl)cncc3n2)ccn1 [Example 251, N-[4-(5-Chloro-4-piperazin-1-yl-pyrido[3,4-d]pyrimidin-2-yl)-pyridin-2-yl]-acetamide]
26 | 100 to 1000 | Fc1cccc(Nc2cc(-c3nc(N4CCNCC4)c4c(Cl)cncc4n3)ccn2)c1F [Example 252, [4-(5-Chloro-4-piperazin-1-yl-pyrido[3,4-d]pyrimidin-2-yl)-pyridin-2-yl]-(2,3-difluoro-phenyl)-amine]
27 | < 100 | Fc1cccc(Nc2cc(-c3nc(N4CCNCC4)c4c(Cl)cncc4n3)ccn2)n1 [Example 253, [4-(5-Chloro-4-piperazin-1-yl-pyrido[3,4-d]pyrimidin-2-yl)-pyridin-2-yl]-(6-fluoro-pyridin-2-yl)-amine]
28 | < 100 | Fc1cccc(F)c1Nc1cc(-c2nc(N3CCNCC3)c3c(Cl)cncc3n2)ccn1 [Example 254, [4-(5-Chloro-4-piperazin-1-yl-pyrido[3,4-d]pyrimidin-2-yl)-pyridin-2-yl]-(2,6-difluoro-phenyl)-amine]
29 | 100 to 1000 | Fc1ccc(Nc2cc(-c3nc(N4CCNCC4)c4c(Cl)cncc4n3)ccn2)c(F)c1 [Example 255, [4-(5-Chloro-4-piperazin-1-yl-pyrido[3,4-d]pyrimidin-2-yl)-pyridin-2-yl]-(2,4-difluoro-phenyl)-amine]
30 | < 100 | Cc1ccnc(Nc2cc(-c3nc(N4CCNCC4)c4c(Cl)cncc4n3)ccn2)c1 [Example 256, [4-(5-Chloro-4-piperazin-1-yl-pyrido[3,4-d]pyrimidin-2-yl)-pyridin-2-yl]-(4-methyl-pyridin-2-yl)-amine]
31 | 100 to 1000 | Fc1ccc(F)c(Nc2cc(-c3nc(N4CCNCC4)c4c(Cl)cncc4n3)ccn2)c1F [Example 257, [4-(5-Chloro-4-piperazin-1-yl-pyrido[3,4-d]pyrimidin-2-yl)-pyridin-2-yl]-(2,3,6-trifluoro-phenyl)-amine]
32 | < 100 | Fc1ccc(Nc2cc(-c3nc(N4CCNCC4)c4c(Cl)cncc4n3)ccn2)nc1 [Example 258, [4-(5-Chloro-4-piperazin-1-yl-pyrido[3,4-d]pyrimidin-2-yl)-pyridin-2-yl]-(5-fluoro-pyridin-2-yl)-amine]

Reference: patent US9914730B2, “Azaquinazoline inhibitors of Atypical protein Kinase C” (Ignyta, Inc., priority 2012, dated 2018)
